Data from the NIST ThermoML archive (doi:10.1016/j.tca.2012.03.001).

What was measured:
[1] = Liquid; for viscosity: 101 kPa; for mass density: 101.33 kPa, Pycnometric method
[2] = xn = mol fraction of the nth substance listed; details: 101 kPa, Liquid

CCOCCO [2-ethoxyethan-1-ol]
[1]
Details	mass density [kg/m3]	viscosity [mPa·s]
303.15 K	921.19	1.654
308.15 K	916.43	1.482
313.15 K	911.58	1.306
318.15 K	907.76	1.231
323.15 K	903.45	1.116

CCOCCO [2-ethoxyethan-1-ol] + NC=O
viscosity [mPa·s], [2]
Details	x2 = 0	x2 = 0.0975	x2 = 0.2009	x2 = 0.2984	x2 = 0.4047	x2 = 0.5054	x2 = 0.6055	x2 = 0.7092	x2 = 0.8063	x2 = 0.9074
303.15 K	1.654	1.996	2.306	2.58	2.873	3.162	3.409	3.509	3.495	3.306
308.15 K	1.482	1.79	2.017	2.24	2.49	2.735	2.968	3.043	3.007	2.867
313.15 K	1.306	1.564	1.786	1.986	2.221	2.466	2.659	2.718	2.692	2.583
318.15 K	1.231	1.437	1.599	1.751	1.957	2.154	2.298	2.363	2.353	2.202
323.15 K	1.116	1.281	1.415	1.533	1.709	1.891	2.041	2.1	2.094	1.954

COCCO [2-methoxyethan-1-ol]
[1]
Details	mass density [kg/m3]	viscosity [mPa·s]
303.15 K	955.72	1.421
308.15 K	951.11	1.249
313.15 K	946.27	1.173
318.15 K	941.64	1.079
323.15 K	936.88	0.9347

COCCO [2-methoxyethan-1-ol] + NC=O
[2], x2 = 0
Details	viscosity [mPa·s]
303.15 K	1.421
308.15 K	1.249
313.15 K	1.173
318.15 K	1.079
323.15 K	0.9347

NC=O [formamide]
[1]
Details	mass density [kg/m3]	viscosity [mPa·s]
303.15 K	1124.57	2.877
308.15 K	1120.19	2.544
313.15 K	1115.22	2.356
318.15 K	1110.95	2.061
323.15 K	1105.47	1.835

NC=O [formamide] + CCOCCO
[2], x1 = 1
Details	viscosity [mPa·s]
303.15 K	2.877
308.15 K	2.544
313.15 K	2.356
318.15 K	2.061
323.15 K	1.835

NC=O [formamide] + COCCO
viscosity [mPa·s], [2]
Details	x1 = 0.1785	x1 = 0.2723	x1 = 0.3849	x1 = 0.4862	x1 = 0.5726	x1 = 0.6651	x1 = 0.7492	x1 = 0.8363	x1 = 0.9138	x1 = 1
303.15 K	1.795	1.993	2.237	2.47	2.665	2.849	2.927	2.968	2.965	2.877
308.15 K	1.573	1.749	1.966	2.158	2.322	2.504	2.593	2.614	2.609	2.544
313.15 K	1.453	1.623	1.813	1.988	2.131	2.264	2.323	2.361	2.36	2.356
318.15 K	1.313	1.46	1.626	1.769	1.885	1.988	2.046	2.07	2.057	2.061
323.15 K	1.129	1.27	1.421	1.566	1.661	1.75	1.806	1.842	1.83	1.835
